Literature values as cited in patent publication US5891469A, “Solid Coprecipitates for enhanced bioavailability of lipophilic substances” (Pharmos Corporation, priority 1997, dated 1999).

Legend:
[1] = for solubility in aqueous solutions: cannabinoids, depending upon the conditions (Garret and Hunt 1974)
[2] = like other lipophilic drugs

CCCCCc1cc(O)c2c(c1)OC(C)(C)[C@@H]1CCC(C)=C[C@@H]21 [Δ^1 -tetrahydrocannabinol (Δ^1 -THC), Δ^1 -tetrahydrocannabinol]
solubility in aqueous solutions [1]: a few micrograms/ml or less

COC1=C(OC)C(=O)C(C/C=C(\C)CC/C=C(\C)CC/C=C(\C)CC/C=C(\C)CC/C=C(\C)CC/C=C(\C)CC/C=C(\C)CC/C=C(\C)CC/C=C(\C)CCC=C(C)C)=C(C)C1=O [Coenzyme Q10, 2,3-dimethoxy-5-methyl-6-decaprenyl-1,4-benzoquinone]
solubility in water (in words) ([1]; due to long side chain of 10 isoprenoid units): practically insoluble in water

CCCCCc1cc(O)c2c(c1)OC(C)(C)[C@@H]1CCC(C)=C[C@@H]21 [tetrahydrocannabinol (THC), tetrahydrocannabinol]
maximal plasma levels (oral dosing of 20 mg THC in a sesame oil formulation (Wall et al. 1983)): around 10 ng/ml | human bioavailability following oral ingestion, mean estimates (oral, depending on the vehicle used): 6 to 12%

CCCCCc1cc(O)c2c(c1)OC(C)(C)c1ccc(C)cc1-2 [cannabinol]
solubility in aqueous solutions [1]: a few micrograms/ml or less

CCCCCCC(C)(C)c1cc(O)c2c(c1)OC(C)(C)[C@H]1CC=C(CO)C[C@H]21 [Dexanabinol, (+)-(3S, 4S)-7-hydroxy-Δ^6-tetra hydrocannabinol-1,1-dimetylheptyl]
oral bioavailability [2]: poor oral bioavailability | solubility in water ([1]; practically insoluble in water): less than 50 μg/ml

CCCCCc1cc(O)c2c(c1)OC(C)(C)[C@@H]1CC=C(C)C[C@@H]21 [Δ^6 -tetrahydrocannabinol (Δ^6 -THC), Δ^6 -tetrahydrocannabinol]
solubility in aqueous solutions [1]: a few micrograms/ml or less

C=C(C)[C@@H]1CCC(C)=C[C@H]1c1c(O)cc(CCCCC)cc1O [cannabidiol]
solubility in aqueous solutions [1]: a few micrograms/ml or less
